Results on 27 molecules are retold here after ChEMBL document CHEMBL4393662, “Structural optimization on a virtual screening hit of smoothened receptor” (Eur J Med Chem, 2019).

The target in series [1] is Protein smoothened (Mus musculus, UniProt P56726). The series is described as follows: Antagonist activity at Smo receptor in mouse NIH/3T3 cells harboring GRE-Luc assessed as inhibition of SAG-induced Hh signaling pathway preincubated with cells followed by SAG addition measured after 48 hrs by luciferase reporter gene assay. The format is cell-based. For orientation: In a reporter assay the amount or activity of a reporter protein is the signal.

The test system of series [2] is HEK293. The series is described as follows: Inhibition of Wnt pathway in HEK293 cells harbouring TCF-luciferase cocultured with LWnt3A cells by Topflash reporter gene assay. In kind it is cell-based. The settings on record: Homo sapiens.
For series [3], the system named is Medulloblastoma cell. The series can be described thus: Antiproliferative activity against mouse Ptch+/- medulloblastoma cells assessed as inhibition of cell growth incubated for 36 hrs by CCK-8 assay. In kind it is functional, cell-based. For orientation: Tetrazolium dyes change colour on reduction, which living cells bring about.
Series [4] has as its system U-251. The series can be described thus: Cytotoxicity activity human U251 cells assessed as reduction of cell viability upto 1000 nM incubated for 48 hrs by CCK-8 assay. The format is cell-based. The settings on record: u-251, 48 h.
The subject of series [5] is Protein smoothened (Homo sapiens), Q99835 [D473H]. The series can be described thus: Antagonist activity at Smo D473H mutant receptor in mouse NIH/3T3 cells assessed as inhibition of Gli1 mRNA expression incubated for 48 hrs by qRT-PCR analysis. The format is cell-based. In general terms: Quantitative PCR measures a nucleic acid by following its amplification.
In series [6] the target is Protein smoothened (Homo sapiens, UniProt Q99835). The series can be described thus: Displacement of BODIPY-Cyclopamine from human HA-tagged Smo receptor expressed in human U2OS cells at 1 to 10000 nM incubated for 2 hrs by DAPI staining based fluorescence microscopic method. In kind it is cell-based.
Series [7] addresses Voltage-gated inwardly rectifying potassium channel KCNH2 (Homo sapiens, UniProt Q12809). The series is described as follows: Inhibition of human ERG by patch clamp method.
Series [8] addresses CYP2D6 (Homo sapiens, UniProt P10635). The series can be described thus: Inhibition of CYP2D6 (unknown origin) at 10 uM relative to control. In kind it is ADME.
Series [9] has as its target CYP3A4 (Homo sapiens, UniProt P08684). The series can be described thus: Inhibition of CYP3A4 (unknown origin) at 10 uM relative to control. The format is ADME.
The target in series [10] is T1, CYP1A2 (Homo sapiens, UniProt P05177).
T1 sequence (P05177 whole entry): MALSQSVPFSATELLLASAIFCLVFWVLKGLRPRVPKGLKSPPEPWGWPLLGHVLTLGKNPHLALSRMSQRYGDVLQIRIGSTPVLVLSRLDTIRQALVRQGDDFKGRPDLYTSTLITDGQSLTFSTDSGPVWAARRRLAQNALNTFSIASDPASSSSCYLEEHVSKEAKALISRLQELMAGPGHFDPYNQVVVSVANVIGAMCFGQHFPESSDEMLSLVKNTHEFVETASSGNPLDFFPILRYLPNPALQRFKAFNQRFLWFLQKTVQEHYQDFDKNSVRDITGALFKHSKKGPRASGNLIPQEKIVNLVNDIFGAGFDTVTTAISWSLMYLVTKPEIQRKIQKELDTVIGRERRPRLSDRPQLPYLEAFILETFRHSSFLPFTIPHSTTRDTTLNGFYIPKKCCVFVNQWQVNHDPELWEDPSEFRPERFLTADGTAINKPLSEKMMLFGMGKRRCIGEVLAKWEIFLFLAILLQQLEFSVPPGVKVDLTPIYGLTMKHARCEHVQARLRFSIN
The series can be described thus: Inhibition of CYP1A2 (unknown origin) at 10 uM relative to control. In kind it is ADME.

The target of series [11] is CYP2C9 (Homo sapiens, UniProt P11712). The series is described as follows: Inhibition of CYP2C9 (unknown origin) at 10 uM relative to control. In kind it is ADME.
A short description of series [12]: Apparent permeability from apical to basolateral side in human Caco2 cells. In kind it is ADME, cell-based. The settings on record: Caco-2.
Series [13] in a line: Efflux ratio of apparent permeability in human Caco2 cells. In kind it is ADME, cell-based. The settings on record: Caco-2.
Series [14] can be described thus: Intrinsic clearance in human liver microsomes at 1 uM. The settings on record: read-out: CLH. The format is ADME, Microsome.
Series [15] has as its target CYP2C19 (Homo sapiens, UniProt P33261). The series is described as follows: Inhibition of CYP2C19 (unknown origin) at 10 uM relative to control. In kind it is ADME.
Series [16] deals with Protein smoothened (Mus musculus) (UniProt P56726). The series can be described thus: Antagonist activity at Smo receptor in mouse NIH/3T3 cells assessed as inhibition of Gli1 mRNA expression incubated for 48 hrs by qRT-PCR analysis. In kind it is cell-based.
Series [17] in a line: Intrinsic clearance in rat liver microsomes at 1 uM. The format is ADME, Microsome. As to conditions: read-out: CLH.
The nature of series [18]: Half life in human liver microsomes at 1 uM. The format is ADME, Microsome.
Series [19] can be described thus: Half life in rat liver microsomes at 1 uM. The format is ADME, Microsome.

As usually defined, the IC50 is the concentration needed to halve the response being measured. For orientation: inhibition means the change of the read-out against control, counted positive when it falls. In general, Papp A→B refers to how fast a substance crosses the layer from the apical side. What is called efflux ratio is the permeability from basolateral to apical divided by that in the opposite direction, in the common usage. As a reminder, the half-life is the time needed for the level to fall by half in the phase considered.

Calls of active or inactive are those of the source.

Chain of Protein smoothened (Mus musculus, UniProt P56726) (P56726 whole entry): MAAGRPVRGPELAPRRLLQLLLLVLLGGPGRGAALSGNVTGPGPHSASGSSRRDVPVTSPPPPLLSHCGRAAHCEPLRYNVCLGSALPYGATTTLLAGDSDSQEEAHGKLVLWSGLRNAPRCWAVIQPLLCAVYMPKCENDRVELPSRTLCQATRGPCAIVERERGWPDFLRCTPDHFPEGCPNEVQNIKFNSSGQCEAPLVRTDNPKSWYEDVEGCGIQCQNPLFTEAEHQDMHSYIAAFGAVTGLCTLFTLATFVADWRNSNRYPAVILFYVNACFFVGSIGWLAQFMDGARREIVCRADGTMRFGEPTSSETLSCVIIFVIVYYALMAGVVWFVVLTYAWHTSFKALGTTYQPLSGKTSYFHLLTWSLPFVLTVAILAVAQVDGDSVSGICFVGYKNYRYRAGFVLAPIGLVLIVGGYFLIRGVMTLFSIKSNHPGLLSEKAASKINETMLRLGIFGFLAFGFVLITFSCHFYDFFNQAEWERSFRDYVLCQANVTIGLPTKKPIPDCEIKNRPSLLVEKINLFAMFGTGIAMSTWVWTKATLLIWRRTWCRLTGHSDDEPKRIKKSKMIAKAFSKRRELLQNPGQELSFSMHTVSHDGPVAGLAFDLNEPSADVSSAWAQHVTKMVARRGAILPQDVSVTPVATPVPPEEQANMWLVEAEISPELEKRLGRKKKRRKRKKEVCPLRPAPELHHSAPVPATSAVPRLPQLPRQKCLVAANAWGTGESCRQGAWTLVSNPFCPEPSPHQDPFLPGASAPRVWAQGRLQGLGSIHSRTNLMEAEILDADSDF
Chain of Protein smoothened (Homo sapiens), Q99835 [D473H] (Q99835 whole entry D473H): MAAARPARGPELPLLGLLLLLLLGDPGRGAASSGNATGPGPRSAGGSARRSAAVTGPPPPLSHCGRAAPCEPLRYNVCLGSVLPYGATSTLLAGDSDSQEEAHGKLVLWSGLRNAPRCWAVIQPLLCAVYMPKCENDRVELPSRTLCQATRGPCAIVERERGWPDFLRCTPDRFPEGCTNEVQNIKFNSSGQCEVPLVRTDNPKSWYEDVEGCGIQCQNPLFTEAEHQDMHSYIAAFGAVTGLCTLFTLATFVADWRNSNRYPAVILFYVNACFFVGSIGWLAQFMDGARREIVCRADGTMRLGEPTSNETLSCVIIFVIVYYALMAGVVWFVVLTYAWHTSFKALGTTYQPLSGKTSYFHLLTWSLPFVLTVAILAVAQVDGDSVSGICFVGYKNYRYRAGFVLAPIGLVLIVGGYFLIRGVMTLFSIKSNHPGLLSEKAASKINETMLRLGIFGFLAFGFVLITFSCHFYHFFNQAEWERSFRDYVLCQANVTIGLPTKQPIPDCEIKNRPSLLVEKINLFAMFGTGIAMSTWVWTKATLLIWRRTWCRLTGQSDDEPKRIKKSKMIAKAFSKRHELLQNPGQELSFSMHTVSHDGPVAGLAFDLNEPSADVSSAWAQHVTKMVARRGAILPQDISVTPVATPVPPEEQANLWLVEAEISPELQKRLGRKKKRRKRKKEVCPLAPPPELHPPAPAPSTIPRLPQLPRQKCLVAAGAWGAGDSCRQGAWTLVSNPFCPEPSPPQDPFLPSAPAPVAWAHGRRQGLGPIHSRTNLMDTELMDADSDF
Chain of Protein smoothened (Homo sapiens, UniProt Q99835) (Q99835 whole entry): as the sequence (Q99835 whole entry D473H) above, with H473D counted along it
Chain of CYP3A4 (P08684 whole entry): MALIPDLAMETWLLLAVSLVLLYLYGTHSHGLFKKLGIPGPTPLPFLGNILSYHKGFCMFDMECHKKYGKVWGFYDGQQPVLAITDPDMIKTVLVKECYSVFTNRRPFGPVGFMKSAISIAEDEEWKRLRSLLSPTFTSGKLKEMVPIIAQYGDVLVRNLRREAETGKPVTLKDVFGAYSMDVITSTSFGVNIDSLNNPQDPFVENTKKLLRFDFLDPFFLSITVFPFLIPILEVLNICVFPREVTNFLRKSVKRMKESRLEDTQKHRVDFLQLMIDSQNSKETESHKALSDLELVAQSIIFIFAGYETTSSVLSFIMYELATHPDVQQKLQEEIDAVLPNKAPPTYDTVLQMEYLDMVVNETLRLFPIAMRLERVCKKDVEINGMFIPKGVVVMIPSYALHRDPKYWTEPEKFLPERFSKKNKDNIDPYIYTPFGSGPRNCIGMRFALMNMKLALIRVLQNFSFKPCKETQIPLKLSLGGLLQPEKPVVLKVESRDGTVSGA
Chain of CYP2C19 (P33261 whole entry): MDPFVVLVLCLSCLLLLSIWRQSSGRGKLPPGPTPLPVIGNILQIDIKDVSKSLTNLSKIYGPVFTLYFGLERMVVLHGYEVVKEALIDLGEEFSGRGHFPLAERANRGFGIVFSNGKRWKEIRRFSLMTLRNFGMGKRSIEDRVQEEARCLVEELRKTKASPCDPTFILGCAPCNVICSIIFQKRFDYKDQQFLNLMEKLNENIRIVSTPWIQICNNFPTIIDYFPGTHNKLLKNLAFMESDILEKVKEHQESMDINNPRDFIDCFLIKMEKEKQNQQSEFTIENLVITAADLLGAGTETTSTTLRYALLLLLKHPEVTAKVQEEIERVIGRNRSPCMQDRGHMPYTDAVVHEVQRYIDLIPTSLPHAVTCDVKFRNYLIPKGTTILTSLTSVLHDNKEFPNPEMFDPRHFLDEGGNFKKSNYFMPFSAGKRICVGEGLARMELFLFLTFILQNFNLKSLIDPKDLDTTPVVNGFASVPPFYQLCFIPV
Chain of CYP2D6 (P10635 whole entry): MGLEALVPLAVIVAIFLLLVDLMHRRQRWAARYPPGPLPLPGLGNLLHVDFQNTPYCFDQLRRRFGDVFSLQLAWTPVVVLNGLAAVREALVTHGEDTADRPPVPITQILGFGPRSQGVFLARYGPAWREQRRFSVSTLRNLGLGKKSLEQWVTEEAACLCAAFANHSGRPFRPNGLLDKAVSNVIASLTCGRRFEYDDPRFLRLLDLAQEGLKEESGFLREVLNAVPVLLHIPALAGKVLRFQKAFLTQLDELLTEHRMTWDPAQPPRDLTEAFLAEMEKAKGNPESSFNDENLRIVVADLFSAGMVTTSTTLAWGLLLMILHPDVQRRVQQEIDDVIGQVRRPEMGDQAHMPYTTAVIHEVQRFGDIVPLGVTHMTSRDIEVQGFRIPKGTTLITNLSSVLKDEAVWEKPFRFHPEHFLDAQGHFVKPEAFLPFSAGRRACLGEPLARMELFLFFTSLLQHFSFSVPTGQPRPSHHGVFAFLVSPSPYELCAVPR
Chain of Voltage-gated inwardly rectifying potassium channel KCNH2 (Q12809 whole entry): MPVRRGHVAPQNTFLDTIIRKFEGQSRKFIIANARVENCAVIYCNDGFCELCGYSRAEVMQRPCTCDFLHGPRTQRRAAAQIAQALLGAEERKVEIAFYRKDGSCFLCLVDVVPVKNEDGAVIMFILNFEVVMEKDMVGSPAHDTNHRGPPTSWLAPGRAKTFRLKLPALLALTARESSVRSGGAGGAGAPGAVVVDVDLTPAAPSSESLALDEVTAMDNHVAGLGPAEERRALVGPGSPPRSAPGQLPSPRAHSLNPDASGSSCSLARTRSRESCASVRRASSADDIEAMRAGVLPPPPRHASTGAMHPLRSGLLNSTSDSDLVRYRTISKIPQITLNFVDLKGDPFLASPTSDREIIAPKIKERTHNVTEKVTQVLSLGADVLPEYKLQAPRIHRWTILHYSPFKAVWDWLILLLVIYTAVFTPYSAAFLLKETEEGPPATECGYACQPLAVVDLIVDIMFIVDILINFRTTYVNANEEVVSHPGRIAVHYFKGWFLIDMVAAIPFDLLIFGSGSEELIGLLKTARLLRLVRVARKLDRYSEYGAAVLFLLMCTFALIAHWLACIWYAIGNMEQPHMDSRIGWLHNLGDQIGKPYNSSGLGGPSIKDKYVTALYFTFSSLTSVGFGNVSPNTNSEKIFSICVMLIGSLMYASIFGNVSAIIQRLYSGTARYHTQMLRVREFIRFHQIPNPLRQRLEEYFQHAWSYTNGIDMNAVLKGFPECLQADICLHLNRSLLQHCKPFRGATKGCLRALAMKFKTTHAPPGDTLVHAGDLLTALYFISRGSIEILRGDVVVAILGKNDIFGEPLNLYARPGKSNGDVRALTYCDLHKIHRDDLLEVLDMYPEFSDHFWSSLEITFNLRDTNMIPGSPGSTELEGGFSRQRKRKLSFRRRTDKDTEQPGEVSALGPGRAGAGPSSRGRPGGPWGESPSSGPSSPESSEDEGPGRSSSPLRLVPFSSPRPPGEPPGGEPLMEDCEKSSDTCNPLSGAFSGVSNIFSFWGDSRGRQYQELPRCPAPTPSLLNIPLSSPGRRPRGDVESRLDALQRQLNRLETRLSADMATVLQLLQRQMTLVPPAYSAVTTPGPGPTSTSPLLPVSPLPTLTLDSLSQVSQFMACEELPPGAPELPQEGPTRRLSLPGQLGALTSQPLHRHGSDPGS
Chain of Protein smoothened (Mus musculus) (P56726 whole entry): as the sequence (P56726 whole entry) above
Chain of CYP2C9 (P11712 whole entry): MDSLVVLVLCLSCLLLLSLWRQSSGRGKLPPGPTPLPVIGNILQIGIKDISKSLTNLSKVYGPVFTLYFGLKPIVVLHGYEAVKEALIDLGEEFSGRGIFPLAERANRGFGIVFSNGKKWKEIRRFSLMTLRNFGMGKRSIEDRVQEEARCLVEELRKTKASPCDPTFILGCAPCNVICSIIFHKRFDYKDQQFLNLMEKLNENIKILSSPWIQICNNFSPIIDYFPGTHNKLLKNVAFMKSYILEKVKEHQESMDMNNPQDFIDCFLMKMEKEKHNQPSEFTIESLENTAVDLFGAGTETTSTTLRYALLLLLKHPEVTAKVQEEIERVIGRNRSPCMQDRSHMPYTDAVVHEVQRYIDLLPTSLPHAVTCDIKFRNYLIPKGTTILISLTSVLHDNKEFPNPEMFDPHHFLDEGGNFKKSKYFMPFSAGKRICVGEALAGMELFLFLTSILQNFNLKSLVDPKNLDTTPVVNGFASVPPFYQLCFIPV

Regarding `Cc1cnc(NCc2ccnn2-c2nnc(N3CCC(C(=O)NC4CCCCC4C)CC3)s2)nc1` (configuration not stated), in [1], the IC50 is 180 nM. For the same molecule, the inhibition entry in series [2] was “Active”.
As for `Cc1ccc(NCc2ccnn2-c2nnc(N3CCC(C(=O)Nc4cnccc4C)CC3)s2)nc1`, the half-inhibitory concentration (IC50) in series [1] was 550 nM. Moreover, in [2], the inhibition result is “Active”.
With `Cc1cc(C)n(-c2nnc(N3CCC(C(=O)NC4CCCCC4C)CC3)s2)n1` (configuration not stated), in series [1], the IC50 is more than 10000 nM.
As for `CS(=O)(=O)c1ccc(C(=O)Nc2ccc(Cl)c(-c3ccccn3)c2)c(Cl)c1` [VISMODEGIB], the IC50 in series [3] turned out to be 4.7 nM. Besides, the Activity result in series [4] is “Non-Toxic”. For the same molecule, the inhibition result in series [5] was “inactive”.
For `Cc1ccc(NCc2ccnn2-c2nnc(N3CCC(C(=O)NC4CCCCC4C)CC3)s2)cc1` (configuration not stated), the results for the concentration for half-maximal inhibition (IC50) in series [1] and in [6] were 46 nM and 18 nM, respectively. Further, the inhibition result in [2] was “Active”.
Turning to `Cc1ccc(NCc2ccnn2-c2nnc(N3CCC(C(=O)Nc4cccnc4C)CC3)s2)nc1`, in [1], the IC50 worked out at 460 nM. Also, the inhibition result in [2] was “Active”.
As for `C[C@@H]1CN(c2nnc(Cc3ccccc3)s2)CCN1c1cnc(C(C)(C)O)cn1`, the half-inhibitory concentration (IC50) in series [1] was more than 10000 nM.
Regarding `CC1CCCCC1NC(=O)C1CCN(c2nnc(-c3ccnn3C)s2)CC1` (configuration not stated), the IC50 in series [1] was more than 10000 nM.
For the molecule `Cc1cnc(NCc2ccnn2-c2nnc(N3CCC(C(=O)NC4CCCCC4C)CC3)s2)cn1` (configuration not stated), the half-inhibitory concentration (IC50) in series [1] was found to be 410 nM. Besides, the inhibition result in [2] is “Active”.
As for `Cc1ccc(NCc2c(-c3nnc(N4CCC(C(=O)NC5CCCCC5C)CC4)s3)cnn2C)nc1` (configuration not stated), in series [1], the IC50 is 1800 nM. Besides, the inhibition result in [2] is “Active”.
For `Cc1ccc(NCc2ccnn2-c2nnc(N3CCC(C(=O)NC4CCCCC4C)CC3)s2)cn1` (configuration not stated) the same measures were 51 nM and “Active”.
For `Cc1ccc(NCc2ccnn2-c2nnc(N3CCC(C(=O)Nc4ccccc4C)CC3)s2)nc1`, in series [1], the 50% inhibitory concentration (IC50) worked out at 140 nM. Also, the inhibition result in series [2] was “Active”.
For the molecule `CC1CCCCC1NC(=O)C1CCN(c2nnc(-n3nccc3CNc3cccnc3)s2)CC1` (configuration not stated), the 50% inhibitory concentration (IC50) in series [1] was 69 nM. Besides, in series [2], the inhibition result is “Active”.
Taken in the same sequence, the figures for `Cc1ccc(OCc2ccnn2-c2nnc(N3CCC(C(=O)NC4CCCCC4C)CC3)s2)nc1` (configuration not stated) were 42 nM and “Active”.
Consider `Cc1ccc(NCc2ccnn2-c2nnc(N3CCC(C(=O)N[C@@H]4CCCC[C@@H]4C)CC3)s2)nc1`, for which, in series [1], the IC50 was 8.4 nM. Besides, in [2], the inhibition result was “Active”.
Turning to `Cc1ccc(NCc2ccnn2-c2nnc(N3CCC(C(=O)N[C@H]4CCCC[C@H]4C)CC3)s2)nc1`, the results for the IC50 in series [7], in [1] and in series [3] were more than 30 µM, 7.1 nM and 0.5 nM, respectively. For the same molecule, the inhibition at 10 µM in series [8] is 59%; in series [9], 72%; in series [10] it was -4%; in series [11] it was 26%; in series [15], 7.1%. In [12], the Papp A→B worked out at 23 ×10⁻⁶ cm/s. In series [13], the efflux ratio stood at 1.03. The values for the CLint scaled at 1 µM in series [14] and in series [17] were 2700 mL/min/kg and 2000 mL/min/kg, respectively. Also, the Activity result in series [4] is “Non-Toxic”. The inhibition entry in [16], in [5] and in series [2] was “Active” throughout. For the same molecule, the half-life at 1 µM is 0.64 min in series [18] and 1.3 min in series [19].
In the case of `CC1CCCCC1NC(=O)C1CCN(c2nnc(-n3nccc3CO)s2)CC1` (configuration not stated), the IC50 in series [1] is more than 10000 nM.
Still for that read-out and setting: the result for `CC1CCCCC1NC(=O)C1CCN(c2nnc(-n3cccn3)s2)CC1` (configuration not stated) reads more than 10000 nM.
Regarding `Cc1ccc(CCc2ccnn2-c2nnc(N3CCC(C(=O)NC4CCCCC4C)CC3)s2)nc1` (configuration not stated), the IC50 in series [1] amounted to 57 nM. The inhibition result in [2] is “Active”.
As to `Cc1ccc(NCc2ccnn2-c2nnc(N3CCC(C(=O)NC4CCCCC4C)CC3)s2)nc1` (racemic), the 50% inhibitory concentration (IC50) is 7.1 nM in [1] and 3.9 nM in series [6]. Also, in series [2], the inhibition entry is “Active”.
As to `Cc1ccc(NCc2ccnn2-c2nnc(N3CCC(C(=O)NC4CCCCC4C)CC3)s2)nn1` (configuration not stated), in [1], the IC50 is 81 nM. In addition, the inhibition result in series [2] was “Active”.
As for `CC(O)c1ccnn1-c1nnc(N2CCC(C(=O)NC3CCCCC3C)CC2)s1` (configuration not stated), the IC50 in series [1] turned out to be 3700 nM. The inhibition result in series [2] was “Active”.
For `Cc1ccc(NCc2ccnn2-c2nnc(N3CCC(C(=O)Nc4ncccc4C)CC3)s2)nc1` the same measures were 280 nM and “Active”.
For `Cc1ccc(NCc2ccnn2-c2nnc(N3CCC(C(=O)Nc4ccncc4C)CC3)s2)nc1` the same measures were 220 nM and “Active”.
With `CC1CCCCC1NC(=O)C1CCN(c2nnc(-n3nccc3CNc3ccccn3)s2)CC1` (configuration not stated), the 50% inhibitory concentration (IC50) in series [1] is 18 nM. Also, the inhibition result in series [2] was “Active”.
For `Cc1ccc(NCc2ccccc2-c2nnc(N3CCC(C(=O)NC4CCCCC4C)CC3)s2)nc1` (configuration not stated) the same measures were 290 nM and “Active”.
As for `CN(C(=O)c1ccc(F)cc1C(F)(F)F)C1CCN(c2nnc(-c3ccnn3C)s2)CC1`, the 50% inhibitory concentration (IC50) in series [1] is more than 10000 nM.
